The results in this text go back to US9023882B2, “5-membered nitrogen containing heterocyclic derivatives and pharmaceutical compositions comprising the same” (Kissei Pharmaceutical Co., Ltd., priority 2007, dated 2015).

Xanthine oxidase (from bovine milk, Sigma), sequence (P80457 whole entry): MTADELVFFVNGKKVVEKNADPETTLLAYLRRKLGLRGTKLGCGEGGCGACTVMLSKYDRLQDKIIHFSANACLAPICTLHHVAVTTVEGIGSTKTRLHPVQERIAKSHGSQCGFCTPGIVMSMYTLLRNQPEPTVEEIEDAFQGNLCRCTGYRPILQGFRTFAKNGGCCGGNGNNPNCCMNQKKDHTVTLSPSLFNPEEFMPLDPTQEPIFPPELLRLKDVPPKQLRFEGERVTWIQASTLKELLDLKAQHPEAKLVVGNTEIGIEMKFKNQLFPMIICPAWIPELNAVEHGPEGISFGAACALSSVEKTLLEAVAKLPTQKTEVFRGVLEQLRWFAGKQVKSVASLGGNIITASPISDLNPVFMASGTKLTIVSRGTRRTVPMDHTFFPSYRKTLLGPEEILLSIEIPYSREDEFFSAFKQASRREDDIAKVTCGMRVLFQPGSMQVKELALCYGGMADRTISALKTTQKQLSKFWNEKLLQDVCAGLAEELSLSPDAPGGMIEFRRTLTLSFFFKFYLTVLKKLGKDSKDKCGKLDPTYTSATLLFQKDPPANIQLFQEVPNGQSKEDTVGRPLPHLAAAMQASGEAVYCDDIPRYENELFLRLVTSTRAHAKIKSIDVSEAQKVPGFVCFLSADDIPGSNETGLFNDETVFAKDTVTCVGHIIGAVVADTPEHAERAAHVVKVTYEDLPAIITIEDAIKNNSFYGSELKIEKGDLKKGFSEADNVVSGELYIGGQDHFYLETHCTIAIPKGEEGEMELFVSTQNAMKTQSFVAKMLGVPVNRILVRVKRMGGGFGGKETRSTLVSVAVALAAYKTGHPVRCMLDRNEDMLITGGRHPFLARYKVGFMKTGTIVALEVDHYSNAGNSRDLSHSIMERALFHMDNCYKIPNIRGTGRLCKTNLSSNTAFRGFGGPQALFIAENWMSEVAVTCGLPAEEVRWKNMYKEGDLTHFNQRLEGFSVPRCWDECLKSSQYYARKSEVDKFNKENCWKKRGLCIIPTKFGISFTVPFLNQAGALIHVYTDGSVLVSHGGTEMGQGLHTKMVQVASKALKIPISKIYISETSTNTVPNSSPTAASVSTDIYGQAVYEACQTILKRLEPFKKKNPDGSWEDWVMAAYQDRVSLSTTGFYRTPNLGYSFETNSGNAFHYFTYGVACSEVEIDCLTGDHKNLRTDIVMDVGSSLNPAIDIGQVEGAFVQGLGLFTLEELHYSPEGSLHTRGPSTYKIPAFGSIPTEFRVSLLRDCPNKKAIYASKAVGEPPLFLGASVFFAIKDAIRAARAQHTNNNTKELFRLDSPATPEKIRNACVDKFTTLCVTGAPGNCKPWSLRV

In one test the target is Xanthine oxidase (from bovine milk, Sigma) (Bos taurus (Bovine), UniProt P80457). In words: Xanthine oxidase inhibitory activity. It counts as biochemical. As to conditions: 100 μM xanthine final, absorbance at 290 nm. The protocol:
(1) Preparation of Test Compounds
Test compounds were dissolved in DMSO (Wako) at 40 mM concentration and then diluted to intended concentrations with phosphate-buffered saline (PBS).
(2) Method for Measurement
Xanthine oxidase (from bovine milk, Sigma) was prepared with phosphate-buffered saline (PBS) at 0.02 units/mL, and then the solution was added to 96 well plates at 50 μL/well. In addition, test compounds diluted with PBS were added at 50 μL/well. Xanthine (Wako) at 200 μM prepared with PBS was added at 100 μL/well, and the reaction was conducted for 10 minutes at room temperature. Absorbance at 290 nm was measured using a microplate reader SpectraMax Plus 384 (Molecular device). The absorbance under a condition without xanthine is 0%, and control without test compounds is 100%. Fifty % inhibitory concentration of a test compound (IC50) was calculated (Tables 91 to 92). Ex. No in the table indicates Example number.
In turn, `N#Cc1cn(-c2ccc(C(=O)O)c(O)c2)cc1-c1ccco1` [Example 356] had a concentration for half-maximal inhibition (IC50) of 1.7 nM.

`COc1ccc(-c2cn(-c3ccc(C(=O)O)c(O)c3)cc2C#N)c(F)c1` [Example 283] yielded an IC50 of 6.2 nM.

Molecule `N#Cc1cn(-c2ccc(C(=O)O)c(O)c2)cc1CCc1ccccc1` [Example 287] came in with an IC50 of 5.8 nM.

As to `N#Cc1cn(-c2cc(C(=O)O)ccn2)cc1-c1cccs1` [Example 360], the midpoint of inhibition, the IC50, lay at 145 nM.

Consider `CCCOc1cccc(-c2cn(-c3ccc(C(=O)O)c(O)c3)cc2C#N)c1` [Example 341], for which inhibition was half-maximal at 10 nM (IC50).

Molecule `COc1ccccc1CCc1cn(-c2ccc(C(=O)O)c(O)c2)cc1C#N` [Example 294] came in with an IC50 of 11.2 nM.

`N#Cc1cn(-c2ccc(C(=O)O)c(O)c2)cc1-c1ccccc1C(F)(F)F` [Example 312] had an IC50 of 9.9 nM.

As to `CCOc1ccc(-c2cn(-c3ccc(C(=O)O)c(O)c3)cc2C#N)cc1` [Example 340], half-maximal inhibition (IC50) required 5.8 nM.

Consider `N#Cc1cn(-c2cc(C(=O)O)ccn2)cc1-c1ccccc1Cl` [Example 364], for which half-maximal inhibition (IC50) required 22.7 nM. Against the preceding molecule, the IC50 is about 3.9-fold higher.

Molecule `N#Cc1cn(-c2ccc(C(=O)O)c(O)c2)cc1-c1ccc(O)cc1` [Example 339] came in with an IC50 of 4.4 nM. This IC50 lies about 5.2-fold lower than the previous one.

In turn, `N#Cc1cn(-c2ccc(C(=O)O)c(O)c2)cc1-c1cccc2c1OCO2` [Example 322] gave a half-maximal inhibitory concentration (IC50) of 6.5 nM. This IC50 and that of the molecule before are within 1.5-fold of each other.

Consider `CC(C)Oc1ccc(-c2cn(-c3ccc(C(=O)O)c(O)c3)cc2C#N)cc1` [Example 346], for which inhibition was half-maximal at 16.8 nM (IC50).

Consider `COc1ccc(F)c(-c2cn(-c3ccc(C(=O)O)c(O)c3)cc2C#N)c1` [Example 284], for which the IC50 amounted to 9.3 nM.

Molecule `Cc1ccc(-c2cn(-c3cc(C(=O)O)ccn3)cc2C#N)cc1` [Example 363] yielded an IC50 of 21.3 nM.

As for `CCOC(=O)c1cn(-c2ccc(C(=O)O)c(O)c2)cc1C(F)(F)F` [Example 298], the IC50 worked out at 6.6 nM.

The same test, now with this note: 0.02 units/mL, xanthine 200 μM, 10 minutes at room temperature, absorbance at 290 nm.
In the case of `N#Cc1cn(-c2ccc(C(=O)O)cc2)cc1-c1ccc(OCc2ccccc2)cc1` [Example 157], the IC50 was 33.8 nM.

As for `N#Cc1cn(-c2ccc(C(=O)O)cc2)cc1-c1cccn1-c1ccccc1` [Example 255], the half-inhibitory concentration (IC50) is 10.1 nM.

`N#Cc1cn(-c2ccc(C(=O)O)cc2)cc1-c1cccc(OCc2ccc(F)cc2)c1` [Example 191] had an IC50 of 90.3 nM. This IC50 is about 8.9-fold higher than that of the molecule before.

Consider `CCOc1cn(-c2ccc(C(=O)O)cc2)cc1C#N` [Example 257], for which the IC50 was 4.1 nM.

Molecule `Cc1cccc(COc2ccccc2-c2cn(-c3ccc(C(=O)O)cc3)cc2C#N)c1` [Example 168] came in with an IC50 of 70 nM.

For `N#Cc1cn(-c2ccc(C(=O)O)cc2)cc1C(=O)N1CCOCC1` [Example 232], 26.9 nM corresponded to half-maximal inhibition (IC50).

In turn, `COc1cn(-c2ccc(C(=O)O)cc2)cc1C#N` [Example 220] had an IC50 of 11.1 nM.

`N#Cc1cn(-c2ccc(C(=O)O)cc2)cc1-c1cccc(OCCCCO)c1` [Example 200] yielded an IC50 of 5.9 nM.

`N#Cc1cn(-c2ccc(C(=O)O)cc2)cc1-c1cccc(OCCO)c1` [Example 153] had an IC50 of 2.4 nM.

The molecule `N#Cc1nn(-c2ccc(C(=O)O)cc2)cc1-c1ccc2c(c1)OCO2` [Example 249] displayed an IC50 of 9.4 nM.

In turn, `N#Cc1cn(-c2ccc(C(=O)O)cc2)cc1-c1cccc(OCc2ccccc2F)c1` [Example 189] displayed an IC50 of 63.4 nM.

The molecule `CCCc1c(C#N)cn(-c2ccc(C(=O)O)cc2)c1C` [Example 239] returned an IC50 of 15 nM.

As to `N#Cc1cn(-c2ccc(C(=O)O)cc2)cc1Cc1ccccc1` [Example 235], the IC50 was 8.6 nM.

`Cc1ccc(-c2cn(-c3ccc(C(=O)O)c(O)c3)cc2C#N)cc1F` [Example 269] displayed an IC50 of 23.4 nM.

The molecule `N#Cc1cn(-c2ccc(C(=O)O)c(O)c2)cc1-c1cccc(F)c1` [Example 265] showed a 50% inhibitory concentration (IC50) of 7.3 nM.

In turn, `CCOC(=O)c1cn(-c2ccc(C(=O)O)cc2)cc1C(F)(F)F` [Example 221] had an IC50 of 45.4 nM. Against the preceding molecule, the IC50 is about 6.2-fold higher.

`N#Cc1cn(-c2ccc(C(=O)O)cc2)cc1-c1ccccc1OCc1ccc(Cl)cc1` [Example 179] came in with an IC50 of 143 nM.
